Some test systems named below: SF-268; HT-29; SK-MEL-28; OVCAR-8; NCI-H460; UO-31; XF498; KM-20L2; HL-60; DLD-1; SNB-75; RXF 393; LOX IMVI; T47D; MDA-MB-435; DU-145; SR; PC-3; MDA-MB-231; DMS-114.
Test in all cases: inhibition of tumour cell growth, NCI panel, 48 h

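Assay format: 96-well plates, 48-hour exposure. GI50 marks 50% less growth.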 Activity calls are given as the source filed them. Rule as the data show it: active = GI50 up to about 1.1 µM and inactive = higher.

For `CCCCCC/C(CC(=O)CCC(=O)NCCc1ccccc1)=N\NC(=O)c1ccc2ccccc2c1O`, the GI50 with SF-268 is 22.6 µM (inactive); in the test with HT-29, 55.3 µM (inactive); in the test on SK-MEL-28, 45.9 µM (inactive); in the test on OVCAR-8, 29.4 µM (inactive); with NCI-H460, 36.5 µM (inactive); with UO-31 it was 35.4 µM (inactive). For the same compound, the GI50 in the test on XF498 is 63 µM (inactive); in the test with KM-20L2 it was 35.1 µM (inactive); in the test with HL-60, 7.78 µM (inactive); in the test on DLD-1, 36.9 µM (inactive); with SNB-75, 78.5 µM (inactive); in the test with RXF 393, 50.4 µM (inactive). Also, the GI50 in the test with LOX IMVI was 17.7 µM (inactive).
For the compound `COc1ccc2c(c1)CCc1cc(OC)ccc1/[N+]([O-])=[N+]\2[O-]`, the GI50 with SF-268 is 16.7 µM (inactive); with T47D, 17 µM (inactive); in the test on MDA-MB-435 it was 16.3 µM (inactive); in the test with DU-145 it was 18.1 µM (inactive); in the test with HT-29, 19.6 µM (inactive); in the test on SK-MEL-28, 18.7 µM (inactive). The GI50 is 3.28 µM (inactive) in the test on SR; 10.4 µM (inactive) with OVCAR-8; 19.1 µM (inactive) in the test on NCI-H460; 9.08 µM (inactive) in the test on UO-31; 6.11 µM (inactive) with HL-60; 14.8 µM (inactive) in the test on PC-3. For the same compound, the GI50 was 18.7 µM (inactive) in the test on MDA-MB-231, 17.9 µM (inactive) with SNB-75, 2.86 µM (inactive) in the test with RXF 393 and 15 µM (inactive) in the test on LOX IMVI.
As to `CCN(CC)c1ccc2c(c1)Oc1ccc(N(C(C)=O)c3ccccc3)cc1C21OC(=O)c2ccccc21` (stereo not drawn), the GI50 in the test on SF-268 was > 100 µM (inactive); in the test on T47D, 5.32 µM (inactive); with MDA-MB-435, 21 µM (inactive); in the test on DU-145 it was > 100 µM (inactive); with HT-29, 32.3 µM (inactive); in the test with SK-MEL-28 it was > 100 µM (inactive). Also, the GI50 in the test with SR was 23.3 µM (inactive); with OVCAR-8, > 75.5 µM (inactive); in the test on NCI-H460, 65.9 µM (inactive); in the test on UO-31, 23.7 µM (inactive); with HL-60, 8.53 µM (inactive); in the test on PC-3, 13.1 µM (inactive). The GI50 is > 100 µM (inactive) with MDA-MB-231, > 59.7 µM (inactive) in the test on SNB-75, > 26.1 µM (inactive) in the test on RXF 393 and > 100 µM (inactive) in the test with LOX IMVI.
As to `COc1cc(N/N=C/C#N)cc(OC)c1OC`, the GI50 in the test on SF-268 was > 10 µM (inactive); in the test on T47D, 4.65 µM (inactive); with MDA-MB-435, > 10 µM (inactive); with DU-145, > 10 µM (inactive); in the test with HT-29, > 10 µM (inactive); in the test with SK-MEL-28, > 10 µM (inactive). The GI50 in the test on SR is 2.96 µM (inactive); with OVCAR-8, > 10 µM (inactive); in the test with NCI-H460, > 10 µM (inactive); in the test with UO-31, > 10 µM (inactive); in the test with HL-60 it was 2.12 µM (inactive); in the test with PC-3 it was > 10 µM (inactive). The GI50 with MDA-MB-231 was > 10 µM (inactive); in the test with SNB-75, 9.16 µM (inactive); with RXF 393, > 10 µM (inactive); in the test on LOX IMVI, 1.54 µM (inactive).
With `COC(=O)c1sc(=NC(=S)N2CCCCC2)sc1C(=O)OC`, the GI50 with SF-268 was > 100 µM (inactive); in the test on SK-MEL-28, > 100 µM (inactive); in the test on SR, 22.9 µM (inactive); with OVCAR-8, > 100 µM (inactive); in the test on NCI-H460, 6.38 µM (inactive); in the test on UO-31, 98.4 µM (inactive). The GI50 in the test on KM-20L2 is > 100 µM (inactive); in the test on HL-60, > 100 µM (inactive); with DLD-1 it was > 100 µM (inactive); in the test on DMS-114 it was 62.7 µM (inactive); in the test on SNB-75 it was > 100 µM (inactive); in the test on RXF 393 it was > 100 µM (inactive).
With `CC(C)NC(=O)OCc1c(COC(=O)NC(C)C)c(-c2cc[n+](COC(=O)Cc3ccccc3)cc2)n2c1CCC2`, the GI50 in the test on SF-268 is 55.1 µM (inactive); in the test with T47D it was > 100 µM (inactive); with MDA-MB-435, > 100 µM (inactive); in the test with DU-145, > 100 µM (inactive); in the test on HT-29, > 100 µM (inactive); in the test on SK-MEL-28 it was > 100 µM (inactive). The GI50 was 9.59 µM (inactive) in the test with SR; > 100 µM (inactive) in the test with OVCAR-8; 52 µM (inactive) with NCI-H460; > 100 µM (inactive) in the test with UO-31; 31.9 µM (inactive) in the test with HL-60; > 100 µM (inactive) with PC-3. The GI50 in the test on MDA-MB-231 is > 100 µM (inactive); with SNB-75, 54.6 µM (inactive); in the test with RXF 393, > 100 µM (inactive); in the test on LOX IMVI it was > 100 µM (inactive).
Consider `COc1cc(Nc2nc3ccc(C(F)(F)F)cc3nc2C(=O)O)cc(OC)c1OC`, for which the GI50 is 18.8 µM (inactive) with SF-268; 26.8 µM (inactive) in the test on T47D; 24.3 µM (inactive) in the test with MDA-MB-435; 28.5 µM (inactive) in the test with DU-145; 27 µM (inactive) with HT-29; 26.8 µM (inactive) with SK-MEL-28. Further, the GI50 is 34.7 µM (inactive) with SR; 27.7 µM (inactive) in the test on OVCAR-8; 21.2 µM (inactive) in the test with NCI-H460; 19.7 µM (inactive) with UO-31; 31.3 µM (inactive) in the test on HL-60; 24.4 µM (inactive) in the test with PC-3. In addition, the GI50 with MDA-MB-231 was 19.2 µM (inactive); in the test on SNB-75, 46 µM (inactive); in the test on RXF 393, 25.2 µM (inactive); with LOX IMVI, 19.1 µM (inactive).
As to `CN(C)CCCNc1ccc2nnn3c4ccc(O)cc4c(=O)c1c23`, the GI50 in the test on SF-268 is 2.88 µM (inactive); in the test on T47D, 21 µM (inactive); in the test on MDA-MB-435, 8.22 µM (inactive); in the test with DU-145, 5.01 µM (inactive); with HT-29, 2.74 µM (inactive); in the test with SK-MEL-28, 6.52 µM (inactive). Also, the GI50 in the test with SR was 0.193 µM (active); in the test on OVCAR-8, 1.5 µM (inactive); with NCI-H460, 0.453 µM (active); with UO-31, 2.06 µM (inactive); in the test with KM-20L2 it was 3.3 µM (inactive); with HL-60, 3.72 µM (inactive). Moreover, the GI50 in the test with PC-3 was 2.84 µM (inactive); with DLD-1 it was 1.42 µM (inactive); in the test with DMS-114 it was 9.18 µM (inactive); in the test on MDA-MB-231, 10.7 µM (inactive); in the test on SNB-75, 3.37 µM (inactive); with RXF 393, 0.149 µM (active). Besides, the GI50 in the test with LOX IMVI was 1.16 µM (inactive).
For the compound `Nc1nc(Cl)cc(NCCCCCCCCCCCCNc2cc(Cl)nc(N)n2)n1`, the GI50 in the test on SF-268 is 28.2 µM (inactive); in the test with HT-29, 10.5 µM (inactive); in the test with SK-MEL-28 it was 7.67 µM (inactive); in the test on SR it was 1.99 µM (inactive); in the test with OVCAR-8, 10.1 µM (inactive); in the test on NCI-H460, 2.5 µM (inactive). Moreover, the GI50 with UO-31 was 31.7 µM (inactive); with XF498, 0.386 µM (active); in the test with KM-20L2 it was 49.1 µM (inactive); in the test on HL-60, 1.14 µM (inactive); in the test on DLD-1, 4.61 µM (inactive); with SNB-75, 8.53 µM (inactive). The figures for the GI50 in the test with RXF 393 and in the test with LOX IMVI were 9.75 µM (inactive) and 0.0869 µM (active), respectively.
Consider `COC(=O)c1ccc2c(c1)CCN2C(=O)c1cc2c(cc1Br)OCO2`, for which the GI50 is 1.8 µM (inactive) in the test with SF-268; 4.11 µM (inactive) in the test with T47D; 0.151 µM (active) in the test on MDA-MB-435; 1.71 µM (inactive) in the test with DU-145; 0.373 µM (active) in the test with HT-29; 11 µM (inactive) in the test on SK-MEL-28. The GI50 was 0.0817 µM (active) with SR; 2.11 µM (inactive) in the test with OVCAR-8; 5.81 µM (inactive) in the test on NCI-H460; 2.01 µM (inactive) with UO-31; 0.198 µM (active) with HL-60; 0.573 µM (active) with PC-3. Further, the GI50 with MDA-MB-231 was 1.65 µM (inactive); with SNB-75, 0.484 µM (active); in the test on RXF 393 it was 0.863 µM (active); in the test on LOX IMVI, 3.11 µM (inactive).
Consider `COc1ccc2cc(/C=N/NC(=O)Nc3ccccc3)ccc2c1`, for which the GI50 in the test with T47D is > 100 µM (inactive); in the test with MDA-MB-435, > 100 µM (inactive); in the test with DU-145 it was > 100 µM (inactive); in the test on HT-29, > 100 µM (inactive); in the test with SK-MEL-28 it was > 10 µM (inactive); in the test on SR it was > 100 µM (inactive). For the same compound, the GI50 is > 100 µM (inactive) in the test on OVCAR-8; > 100 µM (inactive) in the test with NCI-H460; > 100 µM (inactive) in the test on UO-31; > 100 µM (inactive) with HL-60; > 100 µM (inactive) in the test on PC-3; 81.3 µM (inactive) in the test with MDA-MB-231. Further, the GI50 in the test with SNB-75 was > 100 µM (inactive); in the test on RXF 393, > 10 µM (inactive); with LOX IMVI, > 100 µM (inactive).
Turning to `Cc1c2ccnc(-c3ccccc3)c2cc2c1[nH]c1ccccc12`, the GI50 in the test with SF-268 was 4.31 µM (inactive); with HT-29, 0.887 µM (active); with SK-MEL-28, 4.29 µM (inactive); with OVCAR-8, 1.13 µM (inactive); with NCI-H460, 1.06 µM (active); in the test with UO-31, 1.33 µM (inactive). Also, the GI50 with KM-20L2 was 2.61 µM (inactive); in the test on HL-60, 2.09 µM (inactive); in the test on DLD-1, 2.99 µM (inactive); with DMS-114, 1.69 µM (inactive); with SNB-75, 2.33 µM (inactive); in the test on RXF 393 it was 2.42 µM (inactive). Further, the GI50 in the test on LOX IMVI is 1.05 µM (active).
Turning to `CS(=O)(=O)OCC1=C(COS(C)(=O)=O)C(=O)c2c(O)ccc(O)c2C1=O`, the GI50 with SF-268, with HT-29, in the test on SK-MEL-28, in the test on SR, in the test on OVCAR-8 and in the test with UO-31 was > 100 µM (inactive) in each case. The GI50 in the test on KM-20L2, in the test with HL-60, in the test with DLD-1, with DMS-114 and with SNB-75 was > 100 µM (inactive) in each case.

(Values after ChEMBL document CHEMBL1201862, “PubChem BioAssay data set” (2004).)
